Measurements from patent US20240374750A1, “LINKER COMPOUND AND COMPLEX COMPOUND CONTAINING SAME” (TOHOKU UNIVERSITY, priority 2021, published 2024).

Assays:
Assay type in all cases: physicochemical
[1] = Cleavage reaction under cancer cell model condition, NMR (Test Examples 6 and 9)
Experimental: At a concentration of ArS—SrA (H) of the formula (7) (225 μM) assuming a realistic intracellular drug concentration, a GSH concentration of a cancer cell was approximated to 20 mM, and the same measurement was performed.
(§1) To prevent a peak of the aromatic region having a low concentration from being overlapped by the peak of CHCl3 contained in CDCl3, the measurement was performed with D2O in the outside the double tube. The overall compound concentration was low and the peak ratio of water was high, and thus, the number of times of integration was increased for measurement to distinguish between the peaks of the compounds and the peak of the baseline.
ArSSrA (F) and ArSSrA (NO2) were subjected to the same test as in Test Example 6 to examine their cleavage reactions in the normal cell model and the cancer cell model. The results of ArSSrA (F) and ArSSrA (NO2) are shown in Table 6 and Table 7, respectively.

[2] = Reductive cleavage reaction of F- and NO2-substituted products, NMR (Test Examples 7 and 8); details: same conditions as in Test Example 5
[3] = Cleavage reaction under normal cell model condition, NMR (Test Example 5); details: ArS—SrA 225 μM, GSH 450 μM (normal cell model)
Experimental: ArS—SrA (H) of the formula (7) was administered to a cell model of a GSH concentration assuming a realistic intracellular drug concentration to examine the cleavage reaction of the linker compound.
as §1, with “At an ArS—SrA (H) concentration (225 μM), the GSH concentration of a normal cell was approximated to 450 μM, and the same measurement was performed. To” for “To”, “in” for “in the”

[4] = Reductive cleavage reaction with GSH in mixed system, NMR (Test Example 4); details: ArSSrA (H)/GSH=4.4 mM/4.5 mM, 50 mM phosphate buffer
Experimental: As NMR spectrum measurement conditions, GSH of the formula (13) was added to ArSSrA (H) of the formula (7) in a 50 mM phosphate buffer to adjust a solution of ArSSrA (H)/GSH=4.4 mM/4.5 mM, and the measurement by NMR was carried out. A double tube (SHIGEMI Co., Ltd., Model SP-405) was used and a TMS-containing CDCl3 solution (LOCK solvent) was placed in the outside to adjust an NMR tube.
In the NMR measurement, the water elimination (presaturation method) measurement was performed with reference to Casi, G. et al., J. Controlled Release. 2012, 161, 121, 422 to 428, and the like.
(Initial concentration ArSSrA (H)/GSH=4.4 mM/4.5 mM)

[5] = Reductive cleavage reaction with LiBH4 in THF traced by UV spectrum (Test Example 2); details: 45 μM in THF, 11 equivalents LiBH4, absorption at 242 nm
Experimental: The control of the electron density of the S atom by the substituent was expected from the above NMR results, and thus, a reductive cleavage reaction of the thiophenol-type disulfide linker was actually examined. First, a reaction of a thiophenol derivative model compound (compound of formula (2)) with a reducing agent LiBH4 in an organic solvent THF was carried out as a model reaction (formula (12)) using a UV spectrum which can be easily examined, and a pseudo-first order reaction rate was examined.
As the THF, THF available from Wako Pure Chemical Industries, Ltd., product code 207-17765, super dehydrated, and stabilizer-free was used, and as the cell, a cell of 10 mm×10 mm was used. A reduction reaction of an oxidized form (disulfide) of the compound of the formula (2), which is an unsubstituted model compound, was carried out in the cell. The reaction was carried out using an excess amount (11 equivalents) of LiBH4 relative to the oxidized form of the compound of the formula (2) (45 μM in THF). LiBH4 was adjusted by diluting a commercially available THF 2M solution and used in the reaction.

[6] = ArS—SrA 225 μM, GSH 20 mM (cancer cell model), 100 min.
[7] = ArS—SrA 225 μM, GSH 20 mM (cancer cell model), 100 minutes
[8] = ArS—SrA 225 μM, GSH 20 mM (cancer cell model), 1 day

O=C(O)c1c(F)cccc1SSc1cccc(F)c1C(=O)O [ArSSrA (F)]
ArSH abundance ratio [1, 6]: 92% | ArS—SG abundance ratio (1st ArS—SG column) [1, 6]: 0% | ArS—SG abundance ratio (2nd ArS—SG column) [1, 6]: 0% | ArS—SrA abundance ratio (remaining disulfide) [1, 6]: 8% | GSH abundance ratio [1, 6]: 96% | GS—SG abundance ratio [1, 6]: 3.8% | linker disulfide cleaved (dissociated) [1, 7]: about 90% | ArSH abundance ratio [1, 8]: 100% | ArS—SG abundance ratio (1st ArS—SG column) [1, 8]: 0% | ArS—SG abundance ratio (2nd ArS—SG column) [1, 8]: 0% | ArS—SrA abundance ratio (remaining disulfide) [1, 8]: 0% | GSH abundance ratio [1, 8]: 90% | GS—SG abundance ratio [1, 8]: 9.5% | linker disulfide cleaved (dissociated) [1, 8]: all | ArSH abundance ratio ([2]; 100 min.): 38% | ArS—SG abundance ratio (1st ArS—SG column) ([2]; 100 min.): 20% | ArS—SG abundance ratio (2nd ArS—SG column) ([2]; 100 min.): 39% | ArS—SrA abundance ratio (remaining disulfide) ([2]; 100 min.): 42% | GSH abundance ratio ([2]; 100 min.): 42% | GS—SG abundance ratio ([2]; 100 min.): 9% | ArSH abundance ratio ([2]; 1 day): 36% | ArS—SG abundance ratio (1st ArS—SG column) ([2]; 1 day): 21% | ArS—SG abundance ratio (2nd ArS—SG column) ([2]; 1 day): 41% | GSH abundance ratio ([2]; 1 day): 8% | GS—SG abundance ratio ([2]; 1 day): 26%

O=C(O)c1cc(SSc2ccc([N+](=O)[O-])c(C(=O)O)c2)ccc1[N+](=O)[O-] [ArSSrA (NO2)]
ArS—SrA abundance ratio (remaining disulfide) ([1]; 100 min, 225 μM): 5% | ArS—SrA abundance ratio (remaining disulfide) ([1]; 24 h, 225 μM): 0% | ArSH abundance ratio [1, 6]: 95% | ArS—SG abundance ratio (1st ArS—SG column) [1, 6]: 0% | ArS—SG abundance ratio (2nd ArS—SG column) [1, 6]: 0% | GSH abundance ratio [1, 6]: 95% | GS—SG abundance ratio [1, 6]: 4% | linker disulfide cleaved (dissociated) [1, 7]: about 90% | ArSH abundance ratio [1, 8]: 100% | ArS—SG abundance ratio (1st ArS—SG column) [1, 8]: 0% | ArS—SG abundance ratio (2nd ArS—SG column) [1, 8]: 0% | GSH abundance ratio [1, 8]: 90% | GS—SG abundance ratio [1, 8]: 10% | linker disulfide cleaved (dissociated) [1, 8]: all | ArSH abundance ratio ([2]; 100 min.): 51% | ArS—SG abundance ratio (1st ArS—SG column) ([2]; 100 min.): 20% | ArS—SG abundance ratio (2nd ArS—SG column) ([2]; 100 min.): 39% | ArS—SrA abundance ratio (remaining disulfide) ([2]; 100 min.): 29% | GSH abundance ratio ([2]; 100 min.): 30% | GS—SG abundance ratio ([2]; 100 min.): 9% | ArSH abundance ratio ([2]; 1 day): 48% | ArS—SG abundance ratio (1st ArS—SG column) ([2]; 1 day): 22% | ArS—SG abundance ratio (2nd ArS—SG column) ([2]; 1 day): 45% | GSH abundance ratio ([2]; 1 day): 4% | GS—SG abundance ratio ([2]; 1 day): 26%

O=C(O)c1ccccc1SSc1ccccc1C(=O)O [ArSSrA (H)]
ArSH abundance ratio ([3]; 100 min.): 8.2% | ArS—SG abundance ratio (1st ArS—SG column) ([3]; 100 min.): 2% | ArS—SG abundance ratio (2nd ArS—SG column) ([3]; 100 min.): 1.8% | ArS—SrA abundance ratio (remaining disulfide) ([3]; 100 min.): 89% | GSH abundance ratio ([3]; 100 min.): 88% | GS—SG abundance ratio ([3]; 100 min.): 10% | ArSH abundance ratio ([3]; 1 day): 3.3% | ArS—SG abundance ratio (1st ArS—SG column) ([3]; 1 day): 24% | ArS—SG abundance ratio (2nd ArS—SG column) ([3]; 1 day): 21% | ArS—SrA abundance ratio (remaining disulfide) ([3]; 1 day): 84% | GSH abundance ratio (GSH remained) ([3]; 1 day): 18% | GSH consumed ([3]; 1 day): 82% | GS—SG abundance ratio ([3]; 1 day): 62% | linker disulfide cleaved ([3]; 1 day): about 16% | ArSH abundance ratio [1, 6]: 82% | ArS—SG abundance ratio (1st ArS—SG column) [1, 6]: 0% | ArS—SG abundance ratio (2nd ArS—SG column) [1, 6]: 0% | ArS—SrA abundance ratio (remaining disulfide) [1, 6]: 19% | GSH abundance ratio [1, 6]: 97% | GS—SG abundance ratio [1, 6]: 3.4% | linker disulfide cleaved (dissociated) [1, 7]: 82% | ArSH abundance ratio [1, 8]: 100% | ArS—SG abundance ratio (1st ArS—SG column) [1, 8]: 0% | ArS—SG abundance ratio (2nd ArS—SG column) [1, 8]: 0% | ArS—SrA abundance ratio (remaining disulfide) [1, 8]: 0% | GSH abundance ratio [1, 8]: 91% | GS—SG abundance ratio [1, 8]: 8.8% | linker disulfide cleaved (dissociated) [1, 8]: 100% | ArSH abundance ratio ([4]; 25 min.): 13% | ArS—SG abundance ratio (1st ArS—SG column) ([4]; 25 min.): 3.8% | ArS—SG abundance ratio (2nd ArS—SG column) ([4]; 25 min.): 7.2% | ArS—SrA abundance ratio (remaining disulfide) ([4]; 25 min.): 83% | GSH abundance ratio ([4]; 25 min.): 74% | GS—SG abundance ratio ([4]; 25 min.): 19% | ArSH abundance ratio ([4]; 100 min.): 26% | ArS—SG abundance ratio (1st ArS—SG column) ([4]; 100 min.): 11% | ArS—SG abundance ratio (2nd ArS—SG column) ([4]; 100 min.): 20% | ArS—SrA abundance ratio (remaining disulfide) ([4]; 100 min.): 62% | GSH abundance ratio ([4]; 100 min.): 48% | GS—SG abundance ratio ([4]; 100 min.): 32% | ArSH abundance ratio ([4]; 1 day): 12% | ArS—SG abundance ratio (1st ArS—SG column) ([4]; 1 day): 31% | ArS—SG abundance ratio (2nd ArS—SG column) ([4]; 1 day): 57% | ArS—SrA abundance ratio (remaining disulfide) ([4]; 1 day): 57% | GSH abundance ratio ([4]; 1 day): 11% | GS—SG abundance ratio ([4]; 1 day): 32%

c1ccc(SSc2ccccc2)cc1 [formula (2)]
pseudo first order reaction rate constant k [5]: 1.97×10^−2
